Data from article PMC10672842, “Anti-Trypanosoma cruzi Activity, Mutagenicity, Hepatocytotoxicity and Nitroreductase Enzyme Evaluation of 3-Nitrotriazole, 2-Nitroimidazole and Triazole Derivatives” (Molecules, 2023).
Read-outs that look alike come from different tables or passages of the source.

Columns and labels:
[1] = tested on: T. cruzi (Tulahuen strain); experiment: In vitro anti-T. cruzi evaluation in an intracellular model (trypomastigote and amastigote forms, L929 host cells, β-galactosidase readout); assay type: cell-based, Trypanosoma cruzi; settings: for IC50: Tulahuen strain, intracellular trypomastigote and amastigote forms in L929 fibroblasts, 96 h, read-out: IC50 T. cruzi; for SI: selectivity index, L929 cells vs T. cruzi
Method: Derivatives 5–10 were evaluated in vitro against T. cruzi in an intracellular model on the trypomastigote and amastigote forms of the parasite of the Tulahuen strain [20]. This model is interesting because it mimics the life cycle of the parasite, as both clinically relevant forms are present in the environment. The mammalian host cells used were fibroblasts from L929 mice.
This assay was performed as previously described by Buckner et al. (1996) using T. cruzi (Tulahuen strain), which expresses the β-galactosidase gene of Escherichia coli. Infectious trypomastigote forms were obtained by culturing fibroblast monolayers of L929 mice in RPMI-1640 medium (pH 7.2–7.4) without phenol red (Gibco BRL), containing 10% fetal bovine serum and 2 mM glutamine. For the bioassay, 4000 L929 cells in 80 µL of supplemented medium were added to each well of a 96-well microtiter plate. After overnight incubation, 40,000 trypomastigotes in 20 µL were added to the cells and incubated for 2 h. […] The medium was then replaced with compound solutions at 1.0 µg/mL in fresh medium (200 µL), and the plate was incubated for 96 h at 37 °C. After this period, 50 µL of chlorophenol D-galactopyranoside red (500 µM) in 0.5% Nonidet P40 was added to each well, and the plate was incubated for 18 h at 37 °C. After this, the absorbance was measured at 570 nm. Controls with uninfected cells and infected cells treated with benznidazole were performed in parallel. The results are expressed as the percentage of T. cruzi growth inhibition in cells tested with compost compared to infected and untreated cells. The tests were performed in triplicate.

[2] = tested on: T. cruzi nitroreductase enzyme (TcNTR); experiment: Kinetic assay with Trypanosoma cruzi nitroreductase enzyme (NADH oxidation); assay type: biochemical; settings: for Kobs Deriv./Kobs BZN 50 µM: 50 µM derivative
Method: To determine a potential mechanism of action, nitroazole derivatives 5, 6, 8 and 9 were evaluated as substrates of the T. cruzi nitroreductase enzyme (TcNTR) and compared to BZN, the reference prodrug (Table 2). The enzymatic activity was measured by monitoring the oxidation of NADH, the first substrate of the enzyme, via spectrophotometric assays. […] At a concentration of 25 µM, derivatives 5 and 8 were metabolized at rates 2.3 and 2.6 times higher than that of BZN, respectively. At 50 µM, the compounds presented metabolism rates 1.6 and 3.0 times higher than that of BZN, respectively.
The protocols for expressing, purifying and conducting kinetic analysis with the recombinant TcNTR enzyme were adapted from the methods originally developed by Shane Wilkinson, with certain modifications.
For the kinetics assays, it was prepared a 200 μL solution which included 50 mM Tris-Base at pH 7.5, with a constant concentration of both NADH (50 μM) and the substances 5, 6, 8, 9 or BZN. Specifically, two distinct fixed concentrations (25 and 50 μM) of the substances 5, 6, 8, 9 or BZN were tested. These prepared mixtures were then incubated for 5 min at room temperature. Subsequently, the reaction was initiated by adding NTR to achieve a final concentration of 10 μg/mL. The reaction rates were monitored using a Hitachi U-2900 spectrophotometer, measuring the consumption of the primary substrate, NADH (λ = 340 nm; ε = 6.220 M^−1 cm^−1), over a 2-min interval. The resulting data curves were analyzed through linear regression using OriginPro 2016 software. To evaluate the reaction rate (Kobs) obtained from the 25 and 50 μM concentrations of each substrate, comparisons were made with the reference values for BZN. Measurement errors were calculated using the formula: Error = Z × σ/√n, where ‘Z’ denotes the critical value, ‘σ’ represents the standard deviation and ‘n’ is the number of test measurements, which were performed at least in triplicate.

[3] = In vitro cytotoxicity of L929 cells (AlamarBlue); assay type: cell-based, mice; settings: mouse, four days
Method: For this bioassay, 4000 mammalian cells in 200 µL of RPMI-1640 medium (pH 7.2–7.4) (Gibco BRL) plus 10% fetal bovine serum and 2 mM glutamine were added to each well of a 96-well microtiter plate, which was incubated for three days at 37 °C. […] After this period, 20 µL of AlamarBlue^TM was added to each well, and the plate was incubated for another 4–6 h. Then, the absorbance was measured at 570 nm. Controls with cells not treated and treated with benznidazole were performed in parallel, and triplicates were performed on the same plate. The results are expressed as the percent difference in the reduction between treated (CT) and untreated cells (UT) using the following equation:(1) 117.216Abs570 TC−80.586(Abs600 TC)/117.216Abs570 UT−80.586(Abs600 UT) × 100

T. cruzi = tested on: T. cruzi; parameters: method as in PMID 10602737; settings: in vitro; read-out: IC50 against T. cruzi; cited from earlier work
[4] = Trypanosoma cruzi, TULAHUEN, L929, 96 h

SMILES	melting point [°C]	IC50 [1, 4] [µM]	times more potent against T. cruzi than 6 ([1]; ratio of IC50 T. cruzi to 2-nitroimidazole ketone 6)	SI [1]	Kobs Deriv./Kobs BZN 25 µM ([2]; 25 µM derivative, ratio of mean Kobs to BZN)	consumption rate by TcNTR, times higher than that of 6 ([2]; 50 µM)	Kobs Deriv./Kobs BZN 50 µM ([2]; ratio of mean Kobs to BZN)	CC50 at 4 days [3] [µM]	IC50 [1] [µM]	IC50 (T. cruzi) [µM]
O=C(Cn1cnc([N+](=O)[O-])n1)c1ccc(F)cc1F [Compound 5, 1-(2,4-Difluorophenyl)-2-(3-nitro-1H-1,2,4-triazol-1-yl)ethanone]	117 to 119	1.8 ± 0.07	approximately 50	667	2.3	6.6	1.6	1200 ± 0.01		
O=C(Cn1ccnc1[N+](=O)[O-])c1ccc(F)cc1F [Compound 6, 1-(2,4-Difluorophenyl)-2-(2-nitro-1H-imidazol-1-yl)ethanone]	128 to 130	90.9		7			0.3	629 ± 61	91 ± 4	
O=C(Cn1cncn1)c1ccc(F)cc1F [Compound 7, 1-(2,4-Difluorophenyl)-2-(1H-1,2,4-triazol-1-yl)ethanone]		> 200								
OC(Cn1cncn1)c1ccc(F)cc1F (centres unmarked) [Compound 10, 1-(2,4-Difluorophenyl)-2-(1H-1,2,4-triazol-1-yl)ethanol]	119 to 121	120 ± 90		>27				> 3200		
CC[C@@H]([C@H](C)O)n1ncn(-c2ccc(N3CCN(c4ccc(OC[C@@H]5CO[C@@](Cn6cncn6)(c6ccc(F)cc6F)C5)cc4)CC3)cc2)c1=O [posaconazole]										< 0.001
